pIC50: −log10 of the molar value.
The compounds below were run against RNA-directed RNA polymerase (Hepacivirus hominis, UniProt O39930) (assay: inhibitory concentration against RNA dependent RNA polymerase Nonstructural protein 5B of hepatitis C virus).
Chain of RNA-directed RNA polymerase (O39930 whole entry): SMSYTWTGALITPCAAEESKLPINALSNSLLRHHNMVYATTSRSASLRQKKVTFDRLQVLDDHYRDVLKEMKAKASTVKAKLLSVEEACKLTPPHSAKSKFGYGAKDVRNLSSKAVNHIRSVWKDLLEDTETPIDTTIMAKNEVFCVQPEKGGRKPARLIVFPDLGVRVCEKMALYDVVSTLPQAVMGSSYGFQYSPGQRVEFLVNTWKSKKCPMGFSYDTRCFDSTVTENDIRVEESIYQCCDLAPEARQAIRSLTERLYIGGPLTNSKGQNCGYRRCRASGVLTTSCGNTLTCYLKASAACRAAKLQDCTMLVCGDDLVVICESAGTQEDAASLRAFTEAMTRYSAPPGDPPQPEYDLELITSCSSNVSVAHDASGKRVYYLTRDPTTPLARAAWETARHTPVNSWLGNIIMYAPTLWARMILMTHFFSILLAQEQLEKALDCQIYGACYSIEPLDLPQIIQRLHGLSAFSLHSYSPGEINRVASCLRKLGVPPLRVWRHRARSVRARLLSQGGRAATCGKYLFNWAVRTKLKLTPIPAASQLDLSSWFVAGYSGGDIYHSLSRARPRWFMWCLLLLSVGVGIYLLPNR
Compound `O=C(O)c1nc(-c2cccs2)nc(O)c1O` has a pIC50 of 5.59. `O=C(NS(=O)(=O)C(F)(F)F)c1nc(-c2cccs2)[nH]c(=O)c1O` was tested, and the pIC50 was 5.21. Compound `O=C(O)c1nc(-c2ccccc2)nc(O)c1O` has a pIC50 of 4.52. With `Cn1c(-c2cccs2)nc(C(=O)O)c(O)c1=O` the pIC50 was 5.38. In the case of `COc1nc(-c2cccs2)nc(C(=O)O)c1O`, the pIC50 was 4.30. `O=C(O)C(=O)/C=C(\O)c1ccccc1` gave a pIC50 of 5.24. For `CS(=O)(=O)c1nc(-c2cccs2)nc(C(=O)O)c1O`, the pIC50 was 4.31.

What follows are compounds tested against RNA-directed RNA polymerase (Hepacivirus hominis) (UniProt O39930) (assay: Percentage inhibition of RNA dependent RNA polymerase Nonstructural protein 5B of hepatitis C virus at 50 uM).
Chain of RNA-directed RNA polymerase (Hepacivirus hominis) (O39930 1-591): as the sequence (O39930 whole entry) above
`O=C(O)c1nc(-c2cccs2)ncc1O` was tested, and the inhibition was < 30%. With `CS(=O)(=O)Nc1nc(-c2cccs2)nc(C(=O)O)c1O` the inhibition was < 30%. For `Oc1nc(-c2cccs2)nc(-c2nn[nH]n2)c1O`, the inhibition was < 30%. With `O=P(O)(O)c1nc(-c2cccs2)nc(O)c1O` the inhibition was < 30%. In the case of `COC(=O)c1nc(-c2cccs2)nc(O)c1O`, the inhibition was < 30%. With `O=C(NS(=O)(=O)Cc1ccccc1)c1nc(-c2cccs2)nc(O)c1O` the inhibition was < 30%. For `O=C(O)c1nc(-c2ccccn2)nc(O)c1O`, the inhibition was < 30%. For `O=C(O)c1[nH]c(-c2cccs2)nc2ncnc1-2`, the inhibition was < 30%.

Reference: ChEMBL document CHEMBL1137893, “Active site inhibitors of HCV NS5B polymerase. The development and pharmacophore of 2-thienyl-5,6-dihydroxypyrimidine-4-carboxylic acid” (Bioorg Med Chem Lett, 2004)
